From US8637525B2, “Compounds for the reduction of beta-amyloid production” (Bristol-Myers Squibb Company, priority 2009, dated 2014) come the findings set out here.

The subject of the first test is Aβ1-42 production. Nature of the test: Cellular assay for inhibition of Aβ1-42 production (H4 APP751 SWE clone 8.20). In kind it is cell-based. The note with it: 19 h, H4 APP751 SWE clone 8.20 cells, 19 h incubation; class symbols; read-out: Activity Rating (Aβ42 cellular IC50). In outline:
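Viewlux signal read-out; IC50 by curve fit. Sandwich: 565 anti-Aβ42 neoepitope (Wallac conjugate, 0.8 ng/well) + 26D6 anti-N-terminus (APC, 75 ng/well), in Tris-HCl 40 mM pH 7.4/0.2% BSA, o/n 4 °C. Cells exposed to compound 19 h, 37 °C, 5% CO2.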
The IC50 is the concentration that gives 50% inhibition. With `COc1cc(Nc2nc3c(c(N4CC(F)(F)C4)n2)COC3c2ccc(F)cc2)ccc1-n1cnc(Cl)c1` (racemic) [Example 80, N-(4-(4-chloro-1H-imidazol-1-yl)-3-methoxyphenyl)-4-(3,3-difluoroazetidin-1-yl)-7-(4-fluorophenyl)-5,7-dihydrofuro[3,4-d]pyrimidin-2-amine], the 50% inhibitory concentration (IC50) lay in the range of 10 to 100 nM.
Same read-out and setting: the figure for `COc1cc(Nc2nc3c(c(N4CCC[C@@H]4C)n2)COC3c2ccc(F)cc2)ccc1-n1cnc(Cl)c1` (single isomer, unassigned) [Example 74A] is 10 to 100 nM.
Still for that read-out and setting: the figure for `COc1cc(Nc2nc3c(c(N4CCC(C)(N)CC4)n2)CCC3c2ccc(F)cc2)ccc1-n1cnc(Cl)c1` (stereo not shown) [Example 25, 4-(4-amino-4-methylpiperidin-1-yl)-N-(4-(4-chloro-1H-imidazol-1-yl)-3-methoxyphenyl)-7-(4-fluorophenyl)-6,7-dihydro-5H-cyclopenta[d]pyrimidin-2-amine] is 10 to 100 nM.
Same read-out and setting: the figure for `COc1cc(Nc2nc3c(c(N(C)C)n2)CCC3c2ccc(OC(F)(F)F)cc2)ccc1-n1cnc(Cl)c1` (racemic) [Example 100, N^2-(4-(4-Chloro-1H-imidazol-1-yl)-3-methoxyphenyl)-N^4,N^4-dimethyl-7-(4-(trifluoromethoxy)phenyl)-6,7-dihydro-5H-cyclopenta[d]pyrimidine-2,4-diamine] is 1.5 to 9.9 nM; for `COc1cc(Nc2nc3c(c(N4CCNCC4)n2)CCC3c2ccc(F)cc2)ccc1-n1cnc(Cl)c1` (stereo not shown) [Example 31, N-(4-(4-chloro-1H-imidazol-1-yl)-3-methoxyphenyl)-7-(4-fluorophenyl)-4-(piperazin-1-yl)-6,7-dihydro-5H-cyclopenta[d]pyrimidin-2-amine] it is 100 to 1000 nM; for `CCN(C)c1nc(Nc2ccc(-n3cnc(Cl)c3)c(OC)c2)nc2c1CN(C)CC2c1ccc(F)cc1` (stereo not shown) [Example 165, N2-(4-(4-chloro-1H-imidazol-1-yl)-3-methoxyphenyl)-N4-ethyl-8-(4-fluorophenyl)-N4,6-dimethyl-5,6,7,8-tetrahydropyrido[4,3-d]pyrimidine-2,4-diamine] it is 10 to 100 nM.
As for `CCNc1nc(Nc2ccc(-n3ncnc3C)c(F)c2)nc2c1COC2c1ccc(F)cc1` (single isomer, unassigned) [Example 78B, N^4-ethyl-N^2-(3-fluoro-4-(5-methyl-1H-1,2,4-triazol-1-yl)phenyl)-7-(4-fluorophenyl)-5,7-dihydrofuro[3,4-d]pyrimidine-2,4-diamine], the IC50 fell in the range of 10 to 100 nM.
The same measure, in the same setting: the figure for `CC[C@H](COC)Nc1nc(Nc2ccc(-n3cnc(Cl)c3)c(OC)c2)nc2c1CCC2c1ccc(F)cc1` (single isomer, unassigned) [Example 48A] is 1.5 to 9.9 nM; for `CNc1nc(Nc2ccc(-n3ncnc3C)c(F)c2)nc2c1CCC2c1ccccc1` (stereo not shown) [Example 3, N2-(3-fluoro-4-(5-methyl-1H-1,2,4-triazol-1-yl)phenyl)-N4-methyl-7-phenyl-6,7-dihydro-5H-cyclopenta[d]pyrimidine-2,4-diamine] it is 10 to 100 nM.
Still for that read-out and setting: next, `CCNc1nc(Nc2ccc(-n3cnc(Cl)c3)c(OC)c2)nc2c1CN(S(=O)(=O)C1CC1)CC2c1ccccc1` (stereo not shown) [Example 136, N2-(4-(4-chloro-1H-imidazol-1-yl)-3-methoxyphenyl)-6-(cyclopropylsulfonyl)-N4-ethyl-8-phenyl-5,6,7,8-tetrahydropyrido[4,3-d]pyrimidine-2,4-diamine]: 1.5 to 9.9 nM; `CNc1nc(Nc2cccc(OC)c2)nc2c1CCC2c1ccccc1` (stereo not shown) [Example 217, N2-(3-methoxyphenyl)-N4-methyl-7-phenyl-6,7-dihydro-5H-cyclopenta[d]pyrimidine-2,4-diamine]: above 1000 nM.
Consider `COc1cc(Nc2nc3c(c(N(C)C)n2)C[C@H](O)[C@H]3c2ccccc2)ccc1-n1cnc(Cl)c1` [Example 180, (6S,7S)-2-(4-(4-chloro-1H-imidazol-1-yl)-3-methoxyphenylamino)-4-(dimethylamino)-7-phenyl-6,7-dihydro-5H-cyclopenta[d]pyrimidin-6-ol], for which the IC50 lay in the range of 10 to 100 nM.

The test is the same for the next values; noted with them: 19 h, H4 APP751 SWE clone 8.20 cells, 19 h incubation; read-out: Activity Rating (Aβ42 cellular IC50), numeric value.
With `CCN(C)c1nc(Nc2ccc(-n3cnc(Cl)c3)c(OC)c2)nc2c1CN(C)CC2c1ccc(F)cc1` (stereo not shown) [Example 165B, N2-(4-(4-chloro-1H-imidazol-1-yl)-3-methoxyphenyl)-N4-ethyl-8-(4-fluorophenyl)-N4,6-dimethyl-5,6,7,8-tetrahydropyrido[4,3-d]pyrimidine-2,4-diamine], the IC50 was 180 nM.
For `CNc1nc(Nc2cncnc2)nc2c1CCC2c1ccccc1` (stereo not shown) [Example 223, N4-methyl-7-phenyl-N2-(pyrimidin-5-yl)-6,7-dihydro-5H-cyclopenta[d]pyrimidine-2,4-diamine], the IC50 is 11000 nM.
The same measure, in the same setting: the figure for `COc1cc(Nc2nc3c(c(N4CC(C)(F)C4)n2)CCC3c2ccc(F)cc2)ccc1-n1cnc(Cl)c1` (stereo not shown) [Example 190, N-(4-(4-chloro-1H-imidazol-1-yl)-3-methoxyphenyl)-4-(3-fluoro-3-methylazetidin-1-yl)-7-(4-fluorophenyl)-6,7-dihydro-5H-cyclopenta[d]pyrimidin-2-amine] is 37 nM; for `CCNc1nc(Nc2ccc(-n3ncnc3C)c(F)c2)nc2c1COC2c1ccc(F)cc1` (single isomer, unassigned) [Example 78A, N^4-ethyl-N^2-(3-fluoro-4-(5-methyl-1H-1,2,4-triazol-1-yl)phenyl)-7-(4-fluorophenyl)-5,7-dihydrofuro[3,4-d]pyrimidine-2,4-diamine] it is 19 nM; for `CNc1nc(Nc2ccc(Br)c(OC)c2)nc2c1CCC2c1ccccc1` (stereo not shown) [Example 256, N2-(4-bromo-3-methoxyphenyl)-N4-methyl-7-phenyl-6,7-dihydro-5H-cyclopenta[d]pyrimidine-2,4-diamine] it is 97 nM.

Staying with this test, now noted: H4 APP751 SWE clone 8.20 cells, 19 h incubation; class symbols; read-out: Activity Rating (Aβ42 cellular IC50).
As for `COc1cc(Nc2nc3c(c(N(C)C)n2)CCC3c2ccc(F)c(F)c2)ccc1-n1cnc(Cl)c1` (single isomer, unassigned) [Example 95B, N^2-(4-(4-chloro-1H-imidazol-1-yl)-3-methoxyphenyl)-7-(3,4-difluorophenyl)-N^4,N^4-dimethyl-6,7-dihydro-5H-cyclopenta[d]pyrimidine-2,4-diamine], the IC50 lay within 10 to 100 nM.
Still for that read-out and setting: next, `CCNc1nc(Nc2ccc(-n3cnc(Cl)c3)c(OC)c2)nc2c1COCC2c1cc(F)cc(F)c1` (stereo not shown) [Example 112B, N2-(4-(4-chloro-1H-imidazol-1-yl)-3-methoxyphenyl)-8-(3,5-difluorophenyl)-N4-ethyl-7,8-dihydro-5H-pyrano[4,3-d]pyrimidine-2,4-diamine]: 10 to 100 nM.
Still for that read-out and setting: the figure for `CNc1nc(Nc2ccc(-n3cnc(Cl)c3)c(OC)c2)nc2c1COCC2c1ccc(F)c(F)c1` (stereo not shown) [Example 115A, N2-(4-(4-chloro-1H-imidazol-1-yl)-3-methoxyphenyl)-8-(3,4-difluorophenyl)-N4-methyl-7,8-dihydro-5H-pyrano[4,3-d]pyrimidine-2,4-diamine] is 1.5 to 9.9 nM; for `COc1cc(Nc2nc3c(c(N4CCCC4C)n2)CCC3c2ccc(F)cc2)ccc1-n1cnc(Cl)c1` (single isomer, unassigned) [Example 20B, N-(4-(4-chloro-1H-imidazol-1-yl)-3-methoxyphenyl)-7-(4-fluorophenyl)-4-(2-methylpyrrolidin-1-yl)-6,7-dihydro-5H-cyclopenta[d]pyrimidin-2-amine] it is 10 to 100 nM; for `Cc1ncnn1-c1ccc(Nc2nc3c(c(N4CC(F)(F)C4)n2)CCC3c2ccc(F)cc2)cc1F` (single isomer, unassigned) [Example 16B, 4-(3,3-difluoroazetidin-1-yl)-N-(3-fluoro-4-(5-methyl-1H-1,2,4-triazol-1-yl)phenyl)-7-(4-fluorophenyl)-6,7-dihydro-5H-cyclopenta[d]pyrimidin-2-amine] it is 100 to 1000 nM.
On to `CCNc1nc(Nc2ccc(-n3cnc(Cl)c3)c(OC)c2)nc2c1CN(CC(F)(F)F)CC2c1ccccc1` (stereo not shown) [Example 196A], for which the concentration for half-maximal inhibition (IC50) lay within 1.5 to 9.9 nM.
The same measure, in the same setting: next, `COc1cc(Nc2nc3c(c(N4CCC(F)C4)n2)CCOC3c2ccc(F)cc2)ccc1-n1cnc(Cl)c1` (stereo in doubt) [Example 91A, N-(4-(4-chloro-1H-imidazol-1-yl)-3-methoxyphenyl)-8-(4-fluorophenyl)-4-((S)-3-fluoropyrrolidin-1-yl)-6,8-dihydro-5H-pyrano[3,4-d]pyrimidin-2-amine]: 1.5 to 9.9 nM; `CCC1CCCN1c1nc(Nc2ccc(-n3cnc(Cl)c3)c(OC)c2)nc2c1CCC2c1ccc(F)cc1` (single isomer, unassigned) [Example 23A, N-(4-(4-chloro-1H-imidazol-1-yl)-3-methoxyphenyl)-4-(2-ethylpyrrolidin-1-yl)-7-(4-fluorophenyl)-6,7-dihydro-5H-cyclopenta[d]pyrimidin-2-amine]: 10 to 100 nM.
Same read-out and setting: next, `CCNc1nc(Nc2ccc(-n3cnc(Cl)c3)c(OC)c2)nc2c1CCN(CC)C2c1ccc(F)cc1` (single isomer, unassigned) [Example 169A, N2-(4-(4-chloro-1H-imidazol-1-yl)-3-methoxyphenyl)-N4,7-diethyl-8-(4-fluorophenyl)-5,6,7,8-tetrahydropyrido[3,4-d]pyrimidine-2,4-diamine]: 1.5 to 9.9 nM.

The same test, now with this note: H4 APP751 SWE clone 8.20 cells, 19 h incubation; read-out: Activity Rating (Aβ42 cellular IC50), numeric value.
Take `CNc1nc(Nc2ccc(C#N)cc2)nc2c1CCC2c1ccccc1` (stereo not shown) [Example 227, 4-(4-(methylamino)-7-phenyl-6,7-dihydro-5H-cyclopenta[d]pyrimidin-2-ylamino)benzonitrile]: the IC50 was 12 nM.
Same read-out and setting: the figure for `COc1cc(Nc2nc3c(c(N(C)C)n2)COCC3c2ccc(Cl)cc2)ccc1-n1cnc(Cl)c1` (single isomer, unassigned) [Example 65B, N^2-(4-(4-chloro-1H-imidazol-1-yl)-3-methoxyphenyl)-8-(4-chlorophenyl)-N^4,N^4-dimethyl-7,8-dihydro-5H-pyrano[4,3-d]pyrimidine-2,4-diamine] is 160 nM.
